In article PMC8920474 (Current Research in Chemical Biology, 2022) one finds TMPRSS2 inhibitory activity, IC50 and furin inhibitory activity data, which are given here for four compounds.

For one assay, the target named is TMPRSS2 (Homo sapiens, UniProt O15393). Put plainly: VeroE6/TMPRSS2 cell-based TMPRSS2 enzyme inhibitory assay. To be noted: VeroE6/TMPRSS2 cells; up to a concentration of 4.0 μM.
The subject of the next assay is TMPRSS2 in LNCaP cells. The arrangement: species or system human. As to conditions: read-out: IC50, LNCaP cell-based proteolytic enzyme inhibition.
The next assay deals with furin (Homo sapiens, UniProt P09958). Put plainly: Vero/furin cell-based furin enzyme inhibitory assay. To be noted: for furin inhibitory activity: Vero/furin cells, up to a concentration of 40.0 μM.
furin, sequence (P09958 108-794): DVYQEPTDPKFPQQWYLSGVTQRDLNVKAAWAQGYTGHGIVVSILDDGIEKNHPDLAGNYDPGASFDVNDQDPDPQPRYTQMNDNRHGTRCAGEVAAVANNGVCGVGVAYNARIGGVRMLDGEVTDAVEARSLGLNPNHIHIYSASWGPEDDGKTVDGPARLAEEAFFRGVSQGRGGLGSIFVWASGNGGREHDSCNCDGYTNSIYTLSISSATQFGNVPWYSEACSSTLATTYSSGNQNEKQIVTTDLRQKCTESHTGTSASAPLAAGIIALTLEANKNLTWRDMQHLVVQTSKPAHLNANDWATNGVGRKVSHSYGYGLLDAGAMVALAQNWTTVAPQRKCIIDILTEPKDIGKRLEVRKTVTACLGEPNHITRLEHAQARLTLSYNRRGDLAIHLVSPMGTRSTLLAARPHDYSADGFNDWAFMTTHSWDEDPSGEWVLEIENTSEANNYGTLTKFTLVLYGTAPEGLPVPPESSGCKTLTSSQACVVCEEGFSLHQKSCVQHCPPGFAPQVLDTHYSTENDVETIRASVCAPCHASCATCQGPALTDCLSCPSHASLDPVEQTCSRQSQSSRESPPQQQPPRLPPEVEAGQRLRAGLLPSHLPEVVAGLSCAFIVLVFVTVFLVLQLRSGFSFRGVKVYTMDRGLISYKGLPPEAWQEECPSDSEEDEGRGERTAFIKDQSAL

TMPRSS2, sequence (O15393 whole entry): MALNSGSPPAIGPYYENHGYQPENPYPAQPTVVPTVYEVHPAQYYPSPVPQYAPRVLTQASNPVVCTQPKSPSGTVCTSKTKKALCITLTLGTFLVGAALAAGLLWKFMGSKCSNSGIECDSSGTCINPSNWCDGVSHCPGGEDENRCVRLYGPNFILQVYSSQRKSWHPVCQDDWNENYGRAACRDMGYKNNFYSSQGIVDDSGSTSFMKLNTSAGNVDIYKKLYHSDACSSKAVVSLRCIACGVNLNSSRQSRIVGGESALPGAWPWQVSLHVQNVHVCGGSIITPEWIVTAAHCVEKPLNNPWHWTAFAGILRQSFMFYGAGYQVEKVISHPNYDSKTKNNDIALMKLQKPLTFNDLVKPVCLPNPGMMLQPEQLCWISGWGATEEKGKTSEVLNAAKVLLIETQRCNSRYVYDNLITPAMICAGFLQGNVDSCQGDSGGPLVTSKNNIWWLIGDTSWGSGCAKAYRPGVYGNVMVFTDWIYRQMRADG

Regarding `CN(Cc1cc(Br)cc(Br)c1N)C1CCCCC1` [Bromhexine, bromhexine], the TMPRSS2 inhibitory activity result at TMPRSS2 was “inactive”.

Regarding `CN(C)C(=O)COC(=O)Cc1ccc(OC(=O)c2ccc(NC(=N)N)cc2)cc1` [camostat], in the assay with TMPRSS2 in LNCaP cells, the IC50 (usually the point on the concentration scale where inhibition reaches its midpoint) came to 0.026 ± 0.03 µM. Further, the furin inhibitory activity result at furin is “inactive”.

On furin, `N=C(N)c1ccc(/N=N/Nc2ccc(C(=N)N)cc2)cc1` [diminazene] had an IC50 of 13.2 µM.

In the case of `N=C(N)c1ccc2cc(OC(=O)c3ccc(N=C(N)N)cc3)ccc2c1` [nafamostat], on furin, the furin inhibitory activity result is “inactive”.
